A short description of one data set: in vitro. To be noted: human, plasma.
In data set [1] the target is endoproteinase Glu-C (Endo Glu-C) (Staphylococcus aureus, UniProt P0C1U8). To be noted: pH 8.
Data set [2] relates to bovine adrenal chromaffin cells. The class given is cell-based.

Bridge positions count the residues as written; N and C are the ends. Peptide text beside a SMILES is read from it.

Chain of endoproteinase Glu-C (Endo Glu-C) (P0C1U8 69-336 limits assumed): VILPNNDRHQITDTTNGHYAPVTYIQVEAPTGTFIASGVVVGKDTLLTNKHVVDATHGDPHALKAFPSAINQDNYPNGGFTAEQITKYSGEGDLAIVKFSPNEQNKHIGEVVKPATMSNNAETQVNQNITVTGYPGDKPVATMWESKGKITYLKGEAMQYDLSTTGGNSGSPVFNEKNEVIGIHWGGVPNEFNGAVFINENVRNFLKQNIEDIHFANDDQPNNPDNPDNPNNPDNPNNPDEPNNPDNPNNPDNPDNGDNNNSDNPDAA

With `CC(C)C[C@@H]1NC(=O)[C@H](CC(N)=O)NC(=O)[C@H](CO)NC(=O)[C@H](Cc2c[nH]cn2)NC(=O)[C@H](CCC(=O)O)NC(=O)[C@H](CC(C)C)NC(=O)[C@H](Cc2c[nH]cn2)NC(=O)[C@@H]2CSSC[C@@H]3NC(=O)CNC(=O)CNC(=O)CNC(=O)[C@H](C)NC(=O)[C@H](C)NC(=O)CNC(=O)CNC(=O)[C@H](CSSC[C@H](NC3=O)C(=O)N[C@@H](CO)C(=O)N[C@@H](CC(N)=O)C(=O)N3CCC[C@H]3C(=O)N[C@@H](C(C)C)C(=O)N2)NC1=O` [cMII-6] (cyclo(AAGGGCCSNPVCHLEHSNLCGG); disulfide 6-12, 7-20), the “stability in human plasma relative to MII” value was “dramatically greater than MII”. In “in vitro”, the fraction remaining at 24 h was ~90%. Moreover, the “intact peptide remaining on incubation with Endo-GluC” value in data set [1] is listed as “remain entirely intact”. Besides, the “inhibition of nicotine-evoked catecholamine release, activity relative to linear MII” value in data set [2] was “comparable to linear MII”.

Consider `CC(C)C[C@@H]1NC(=O)[C@H](CC(N)=O)NC(=O)[C@H](CO)NC(=O)[C@H](Cc2c[nH]cn2)NC(=O)[C@H](CCC(=O)O)NC(=O)[C@H](CC(C)C)NC(=O)[C@H](Cc2c[nH]cn2)NC(=O)[C@@H]2CSSC[C@@H]3NC(=O)CNC(=O)CNC(=O)[C@H](C)NC(=O)[C@H](C)NC(=O)CNC(=O)[C@H](C)NC(=O)CNC(=O)CNC(=O)[C@H](CSSC[C@H](NC3=O)C(=O)N[C@@H](CO)C(=O)N[C@@H](CC(N)=O)C(=O)N3CCC[C@H]3C(=O)N[C@@H](C(C)C)C(=O)N2)NC1=O` [cMII-7] (cyclo(AAGGCCSNPVCHLEHSNLCGGAG); disulfide 5-11, 6-19), for which the “stability in human plasma relative to MII” value is given as “dramatically greater than MII”. Further, the share remaining at 24 h in the data set “in vitro” was ~90%. Besides, the “intact peptide remaining on incubation with Endo-GluC” value in data set [1] is “remain entirely intact”. The “inhibition of nicotine-evoked catecholamine release, activity relative to linear MII” value in data set [2] is on record as “comparable to linear MII”.

For orientation: fraction remaining means what is left of the initial amount, in per cent. A higher fraction remaining goes with less turnover.

(Values after patent US8354372B2 (priority 2006, dated 2013).)
